{
  "source": "patent US11191735B2",
  "about": "“Arginine silicate for periodontal disease” (NUTRITION 21, LLC, priority 2015, dated 2021)",
  "key": {"[1]": {"test_system": "experimental periodontal disease (ligature model)", "conditions": "for ALP (serum) / CRP (serum) / Ca (serum) / P (serum): rats", "procedure": "(§1) All animals and surgical procedures were handled in accordance with guidelines of the Chancellor's Animal Research Committee of the Office for Protection of Research Subjects at the University of Inonu, Malatya, Turkey (2013/A-12). Fifty-two (2-month-old) female Sprague-Dawley rats weighing […] (Experimental Research Center of Inonu University) were kept in temperature-controlled cages (approximately 25° C.), exposed to a 24-hr light-dark cycle of equal time, and had free access to water and food ad libitum.\n(§2) The fifty-two rats were randomly divided into four groups: the non-ligated treatment (Control) group (n=13), the ligature-only (L) group (n=13), the ligature plus ASI (“arginine-silicate-inositol;” Nutrition 21, NY, USA, see, e.g. U.S. Pat. Nos. 5,707,970 and 7,576,132) with dose of 1.81 mg/kg of diet group (designated “ASI I”), (n=13), the ligature plus ASI with dose of 3.62 mg/kg of diet group (designated “ASI II”) (n=13).\n(§3) For all the studies described herein, the well-characterized ligature model of placing a sterile wire ligature around the crown of the right first maxillary molar was utilized. Rats were anesthetized with Rompun®, 10 mg/kg ve Xylazine®, 40 mg/kg ketamin, and a sterile 28-gauge wire ligature was placed around the cervical portion of the right first molar. Animals continued to receive basal diet or basal diet supplemented with 1.81 or 3.62 […] (Proctor et al., 2005) for 8 weeks before ligature placement.\n(§4) Animals were monitored weekly to ensure presence of the ligature, and the ligature was adjusted if necessary. At the end of the experiment, animals were euthanized, blood was collected via cardiac puncture, and serum biomarkers including Ca, Mg, phosphorus, alkaline phosphatase, and CRP (C-reactive protein) were measured. Whole maxillas were removed, placed in 10% formalin for 48 hours, and stored in 70% ethanol."}, "[2]": {"test_system": "IL-1β, MMP-8, RANK, RANKL, OPG, MPO expression levels from periodontal tissue", "conditions": "for IL-1β protein level / MMP-8 protein level / MPO protein level / OPG protein level / RANK protein level / RANKL protein level: control = 100", "excerpt": "FIG. 1B depicts western blot strips Il-1B, MMP-8, RANK, RANK-L, OPG and MPO expression levels from periodontal tissue.\nas §1, §2, §3, §4"}, "[3]": {"test_system": "experimental periodontal disease (ligature model)", "conditions": "for ICI Dense, animals / ICI Little visible, animals / ICI Slightly visible, animals: n=13", "procedure": "as §1, §2, §3\nA histologic evaluation was performed by a single examiner (I.O.) who was masked to the identity of the samples. The specimens were fixed in a 10% neutral-buffered formalin solution and demineralized in an aqueous 10% formic acid solution. The specimens were then dehydrated, embedded in paraffin, and sectioned along the molars in a mesiodistal plane for hematoxylin and eosin staining, as described by Toker et al. Light microscopy (Nikon, Tokyo, Japan), and assessment was performed on the two sections with a thickness of about […], corresponding to the buccal and lingual areas between the first and second molars where ligatures had been placed.\nThe areas of alveolar bone and interdental septum were analyzed under light microscopy, considering parameters including inflammatory cell infiltration (“ICI”) of the periodontal tissues, existing resorption lacunae (osteoclast surfaces), osteoblastic activity (forming surfaces) and the number of osteoclasts. […] Osteoclasts were counted based on their morphology."}, "[4]": {"test_system": "experimental periodontal disease (ligature model)", "procedure": "as §1, §2, §3\nBones were imaged by micro-computed tomographic (μCT) scanning (SkyScan1172 Compact MKT (Kontich, Belgium)) at 16-μm resolution, and volumetric data were converted to DICOM format and imported in the Recon 1.6.9.4 SkyScan (Contich, Belgium) to generate 3D and multiplanar reconstructed images. An oral and maxillofacial radiologist (ST), blinded to the specific animal treatment, evaluated the μCT images of all animals to identify and score bony changes and performed all linear measurements using Recon software tools.\nTo quantify the amount of bone loss induced by experimental periodontal disease (PD), the imaged volume was oriented with the nasal cavity floor parallel to the horizontal plane and the midpalatal suture parallel to the midsagittal plane. Then the volume was angled such that the long axis of the distal root of the first molar (D1) and the mesial root of the second molar (M2) were vertical to the horizontal plane. Then the distance between the cementoenamel junction (CEJ) and the alveolar bone crest (ABC) was measured at the center of D1 and M2. To quantitatively assess changes in the width of the buccal alveolar outline on axial slices, the imaged volume was oriented such that the floor of the nasal cavity was parallel to the horizontal plane and the midpalatal suture was parallel to the midsagittal plane. Then the shortest distance from the buccal surface of the root to the buccal outline of the alveolar ridge was measured for the mesial and distal roots of the first and second molars at the level of the hard palate."}, "[5]": {"test_system": "early to mild periodontitis", "excerpt": "The study group comprises ten systemically healthy subjects with early to mild periodontitis. […] Prior to any treatment procedure, oral hygiene instructions (OHI) are given. Each quadrant of the subjects is randomly assigned to one of the following groups: (A) scaling and root planning combined with daily administration of arginine silicate post-treatment, (B) scaling and root planning alone, (C) daily administration of arginine silicate alone, and (D) OHI alone.\nSubjects are re-examined at one week, four weeks, eight weeks, and 12 weeks."}, "gingivitis": {"test_system": "gingivitis", "experiment": "Study in patients with gingivitis (Example 4)", "type": "in vivo, human", "procedure": "20 patients with gingivitis (having at least three of the following symptoms: swollen gums, bright red or purple gum tissue, gum tissue that is sensitive to touch, bleeding gums, bad breath) are studied. Five patients are administered once-daily arginine silicate (I); five patients are topically administered once-daily arginine silicate to the oral cavity (II); five patients are administered chlorhexidine mouthwash for twice-daily use (III); and five patients are administered standard over-the-counter mouthwash for twice daily use (IV).\nPatients are evaluated at four weeks, eight weeks, and twelve weeks. […] The trial is ceased at twelve weeks to avoid side effects from the chlorhexidine treatment."}, "[6]": {"conditions": "L + ASI I: ligature plus ASI, 1.81 mg/kg of diet"}, "[7]": {"conditions": "L + ASI II: ligature plus ASI, 3.62 mg/kg of diet"}},
  "note": "Where two headings read alike, the source gives them in different places. Marks after values point to notes of the source that are not given here.",
  "data": [
    {"substance": "arginine silicate inositol [ASI]", "values": [
      {"measurement": "serum calcium levels", "setting": "[1]; ASI II group (3.62 mg/kg of diet)", "result": "significantly reduced"},
      {"measurement": "serum CRP levels in comparison to the induced periodontitis group", "setting": "[1]; ASI treatment groups (both doses)", "result": "significantly lower"},
      {"measurement": "ALP (serum)", "setting": "[1]; [6]", "result": "440.31 ± 69.93", "unit": "U/L"},
      {"measurement": "CRP (serum)", "setting": "[1]; [6]", "result": "0.16 ± 0.07^b mg/dl"},
      {"measurement": "Ca (serum)", "setting": "[1]; [6]", "result": "10.37 ± 0.32", "unit": "mg/dL"},
      {"measurement": "P (serum)", "setting": "[1]; [6]", "result": "8.35 ± 1.82", "unit": "mg/dL"},
      {"measurement": "ALP (serum)", "setting": "[1]; [7]", "result": "380.54 ± 85.36", "unit": "U/L"},
      {"measurement": "CRP (serum)", "setting": "[1]; [7]", "result": "0.18 ± 0.06^b mg/dl"},
      {"measurement": "Ca (serum)", "setting": "[1]; [7]", "result": "9.78 ± 0.66^c mg/dl"},
      {"measurement": "P (serum)", "setting": "[1]; [7]", "result": "7.82 ± 1.61", "unit": "mg/dL"},
      {"measurement": "levels for IL-1β and MPO in the ASI II group in comparison to the ASI I group", "setting": "[2]; 3.62 vs 1.81 mg/kg of diet", "result": "significantly lower"},
      {"measurement": "levels for IL-1β, MMP-8, RANK, RANKL, OPG, MPO in comparison to the periodontitis group", "setting": "[2]; ASI groups (both doses)", "result": "significantly lower"},
      {"measurement": "IL-1β protein level", "setting": "[2]; L + ASI I: 1.81 mg/kg of diet", "result": "142.5 ± 2.53^a,b"},
      {"measurement": "MMP-8 protein level", "setting": "[2]; L + ASI I: 1.81 mg/kg of diet", "result": "166.79 ± 7.86^a,b"},
      {"measurement": "MPO protein level", "setting": "[2]; L + ASI I: 1.81 mg/kg of diet", "result": "180 ± 2.97^a,b"},
      {"measurement": "OPG protein level", "setting": "[2]; L + ASI I: 1.81 mg/kg of diet", "result": "72.87 ± 4.67^a,b"},
      {"measurement": "RANK protein level", "setting": "[2]; L + ASI I: 1.81 mg/kg of diet", "result": "189.27 ± 5.3^a,b"},
      {"measurement": "RANKL protein level", "setting": "[2]; L + ASI I: 1.81 mg/kg of diet", "result": "150.11 ± 6.34^a,b"},
      {"measurement": "IL-1β protein level", "setting": "[2]; L + ASI II: 3.62 mg/kg of diet", "result": "111.24 ± 2.35^a,b,c"},
      {"measurement": "MMP-8 protein level", "setting": "[2]; L + ASI II: 3.62 mg/kg of diet", "result": "150.256 ± 11.6^a,b"},
      {"measurement": "MPO protein level", "setting": "[2]; L + ASI II: 3.62 mg/kg of diet", "result": "159.59 ± 13.09^a,b,c"},
      {"measurement": "OPG protein level", "setting": "[2]; L + ASI II: 3.62 mg/kg of diet", "result": "91.13 ± 3.04^a,b,c"},
      {"measurement": "RANK protein level", "setting": "[2]; L + ASI II: 3.62 mg/kg of diet", "result": "174.31 ± 9.82^a,b"},
      {"measurement": "RANKL protein level", "setting": "[2]; L + ASI II: 3.62 mg/kg of diet", "result": "138.35 ± 13.6^a,b"},
      {"measurement": "ICI (inflammatory cell infiltration)", "setting": "[3]; ASI treatment (both doses)", "result": "significantly reduced"},
      {"measurement": "ICI Dense, animals", "setting": "[3]; L + ASI I: 1.81 mg/kg of diet", "result": "4 (%30.8) n (%)"},
      {"measurement": "ICI Little visible, animals", "setting": "[3]; L + ASI I: 1.81 mg/kg of diet", "result": "0 (%0) n (%)"},
      {"measurement": "ICI Slightly visible, animals", "setting": "[3]; L + ASI I: 1.81 mg/kg of diet", "result": "9 (%69.2) n (%)"},
      {"measurement": "ICI Dense, animals", "setting": "[3]; L + ASI II: 3.62 mg/kg of diet", "result": "2 (%15.4) n (%)"},
      {"measurement": "ICI Little visible, animals", "setting": "[3]; L + ASI II: 3.62 mg/kg of diet", "result": "0 (%0)^ n (%)"},
      {"measurement": "ICI Slightly visible, animals", "setting": "[3]; L + ASI II: 3.62 mg/kg of diet", "result": "11 (%84.6) n (%)"},
      {"measurement": "bone mineral density with respect to the controls and the ASI I group", "setting": "[4]; ASI II (3.62 mg/kg of diet)", "result": "significantly increased"},
      {"measurement": "BMD (bone mineral density)", "setting": "[4]; L + ASI I: 1.81 mg/kg of diet", "result": "0.78 ± 0.07", "unit": "g/cm^2"},
      {"measurement": "DCEJ-DCB/DCEJ-DRAP, rate of bone loss", "setting": "[4]; L + ASI I: 1.81 mg/kg of diet", "result": "0.41 ± 0.12 ^"},
      {"measurement": "MCEJ-MCB/MCEJ-MRAP, rate of bone loss", "setting": "[4]; L + ASI I: 1.81 mg/kg of diet", "result": "0.49 ± 0.10 ^a,b"},
      {"measurement": "RF-RFCB/RF-RFAP, rate of bone loss", "setting": "[4]; L + ASI I: 1.81 mg/kg of diet", "result": "0.21 ± 0.04 ^a,b"},
      {"measurement": "BMD (bone mineral density)", "setting": "[4]; L + ASI II: 3.62 mg/kg of diet", "result": "0.85 ± 0.06 ^b g/cm^2"},
      {"measurement": "DCEJ-DCB/DCEJ-DRAP, rate of bone loss", "setting": "[4]; L + ASI II: 3.62 mg/kg of diet", "result": "0.42 ± 0.08 ^"},
      {"measurement": "MCEJ-MCB/MCEJ-MRAP, rate of bone loss", "setting": "[4]; L + ASI II: 3.62 mg/kg of diet", "result": "0.50 ± 0.10 ^a,b"},
      {"measurement": "RF-RFCB/RF-RFAP, rate of bone loss", "setting": "[4]; L + ASI II: 3.62 mg/kg of diet", "result": "0.22 ± 0.05 ^a,b"},
      {"measurement": "improvement in periodontal symptoms", "setting": "[5]; group (A): scaling and root planning combined with daily arginine silicate, eight and twelve weeks", "result": "significant improvement"},
      {"measurement": "improvement in periodontal symptoms", "setting": "[5]; group (A): scaling and root planning combined with daily arginine silicate, four weeks", "result": "significant improvement"},
      {"measurement": "improvement in periodontal symptoms", "setting": "[5]; group (C): daily arginine silicate alone, eight and twelve weeks", "result": "significant improvement"},
      {"measurement": "improvement in periodontal symptoms", "setting": "[5]; group (C): daily arginine silicate alone, four weeks", "result": "minimal improvement"},
      {"measurement": "reduction in symptoms of gingivitis", "setting": "gingivitis; group (I): administered once-daily, eight and twelve weeks", "result": "most significant reduction"},
      {"measurement": "reduction in symptoms of gingivitis", "setting": "gingivitis; group (I): administered once-daily, four weeks", "result": "significant reduction"},
      {"measurement": "reduction in symptoms of gingivitis", "setting": "gingivitis; group (II): topically administered once-daily to the oral cavity, eight and twelve weeks", "result": "most significant reduction"},
      {"measurement": "reduction in symptoms of gingivitis", "setting": "gingivitis; group (II): topically administered once-daily to the oral cavity, four weeks", "result": "significant reduction"}
    ]}
  ]
}
